Results: patent US20230085307A1, “PYRIDAZINONE COMPOUND AND HERBICIDE” (NISSAN CHEMICAL CORPORATION, priority 2019, published 2023)

How the values were obtained:
[1] = test system: late watergrass; test: Test Example 1: herbicidal activity, application before weed generation under submerged conditions (Table 16, symbol A); format: in vivo, late watergrass (Echinochloa oryzicola); details: amount of applied herbicide 320 g/ha
Summary of the method: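 Emulsion formulation, water-diluted to set dose, was put onto the flooded surface (4 cm depth, alluvial soil) the same day weeds were sown and 2.5-leaf rice transplanted. After 3 weeks at 25-30 °C under glass, each species was rated 0 (≤5% kill) to 5 (≥90% kill).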

[2] = test system: late watergrass; test: Test Example 2: herbicidal activity, application during weed generation under submerged conditions (Table 17, symbol A); format: in vivo, late watergrass (Echinochloa oryzicola); details: AAH 320 g/ha; application during weed generation, submerged conditions
Summary of the method: (§1)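 Steps: fill Wagner pots with alluvial soil; add water to give 4 cm depth; sow the species mixed; grow under glass at 25–30° C.; at 1–2 leaves apply water-diluted emulsion formulation to the water surface at a fixed herbicide amount; score after 3 weeks.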

[3] = test system: Japanese bulrush; test: Test Example 2: herbicidal activity, application during weed generation under submerged conditions (Table 17, symbol B); format: in vivo, Japanese bulrush (Schoenoplectus juncoides); details: AAH 320 g/ha; application during weed generation, submerged conditions
Summary of the method: as §1

[4] = test system: oval-leafed pondweed; test: Test Example 2: herbicidal activity, application during weed generation under submerged conditions (Table 17, symbol C); format: in vivo, oval-leafed pondweed (Monochoria vaginalis); details: AAH 320 g/ha; application during weed generation, submerged conditions
Summary of the method: as §1

[5] = test system: wild oat; test: Test Example 4: herbicidal effect by soil treatment (Table 19, symbol I); format: in vivo, wild oat (Avena fatua); details: amount of applied herbicide 320 g/ha
Summary of the method: (§2)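 Emulsion of test compound, water-diluted to predetermined amount, sprayed on soil after sowing (seed depth ~1.5 cm, sterilized diluvial soil). Greenhouse, 25–30° C. Effect graded at three weeks post-spray.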

[6] = test system: blackgrass; test: Test Example 4: herbicidal effect by soil treatment (Table 19, symbol J); format: in vivo, blackgrass (Alopecurus myosuroides); details: amount of applied herbicide 320 g/ha
Summary of the method: as §2

[7] = test system: Italian ryegrass; test: Test Example 4: herbicidal effect by soil treatment (Table 19, symbol K); format: in vivo, Italian ryegrass (Lolium multiflorum); details: amount of applied herbicide 320 g/ha
Summary of the method: as §2

[8] = test system: lambsquarters; test: Test Example 4: herbicidal effect by soil treatment (Table 19, symbol O); format: in vivo, lambsquarters (Chenopodium album); details: amount of applied herbicide 320 g/ha
Summary of the method: as §2

[9] = test system: chickweed; test: Test Example 4: herbicidal effect by soil treatment (Table 19, symbol P); format: in vivo, common chickweed (Stellaria media); details: amount of applied herbicide 320 g/ha
Summary of the method: as §2

[10] = test system: false cleavers; test: Test Example 4: herbicidal effect by soil treatment (Table 19, symbol Q); format: in vivo, false cleavers (Galium spurium); details: amount of applied herbicide 320 g/ha
Summary of the method: as §2

[11] = test system: persian speedwell; test: Test Example 4: herbicidal effect by soil treatment (Table 19, symbol R); format: in vivo, Persian speedwell (Veronica persica); details: amount of applied herbicide 320 g/ha
Summary of the method: as §2

[12] = test system: southern crabgrass; test: Test Example 5: herbicidal effect by foliage application, plastic box (Table 20, symbol F); format: in vivo, southern crabgrass (Digitaria ciliaris); details: foliage application, 320 g/ha, three weeks after application
Summary of the method: (§3)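 Post-emergence foliar test in sterilized diluvial soil. Compound applied as water-diluted emulsion at a predetermined rate to 14-day-old plants; evaluation at three weeks.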

[13] = test system: blackgrass; test: Test Example 5: herbicidal effect by foliage application, plastic box (Table 20, symbol J); format: in vivo, blackgrass (Alopecurus myosuroides); details: foliage application, 320 g/ha, three weeks after application
Summary of the method: as §3

[14] = test system: Italian ryegrass; test: Test Example 5: herbicidal effect by foliage application, plastic box (Table 20, symbol K); format: in vivo, Italian ryegrass (Lolium multiflorum); details: foliage application, 320 g/ha, three weeks after application
Summary of the method: as §3

[15] = test system: velvetleaf; test: Test Example 5: herbicidal effect by foliage application, plastic box (Table 20, symbol M); format: in vivo, velvetleaf (Abutilon theophrasti); details: foliage application, 320 g/ha, three weeks after application
Summary of the method: as §3

[16] = test system: redroot pigweed; test: Test Example 5: herbicidal effect by foliage application, plastic box (Table 20, symbol N); format: in vivo, redroot pigweed (Amaranthus retroflexus); details: foliage application, 320 g/ha, three weeks after application
Summary of the method: as §3

[17] = test system: chickweed; test: Test Example 5: herbicidal effect by foliage application, plastic box (Table 20, symbol P); format: in vivo, common chickweed (Stellaria media); details: foliage application, 320 g/ha, three weeks after application
Summary of the method: as §3

[18] = test system: false cleavers; test: Test Example 5: herbicidal effect by foliage application, plastic box (Table 20, symbol Q); format: in vivo, false cleavers (Galium spurium); details: foliage application, 320 g/ha, three weeks after application
Summary of the method: as §3

| Structure (SMILES) | Herbicidal effect, A: late watergrass [1] | herbicidal effect rating, A: late watergrass [2] | herbicidal effect rating, B: Japanese bulrush [3] | herbicidal effect rating, C: oval-leafed pondweed [4] | herbicidal effect, I: wild oat [5] | herbicidal effect, J: blackgrass [6] | herbicidal effect, K: Italian ryegrass [7] | herbicidal effect, O: lambsquarters [8] | herbicidal effect, P: chickweed [9] | herbicidal effect, Q: false cleavers [10] | herbicidal effect, R: persian speedwell [11] | F: southern crabgrass, herbicidal effect grade [12] | J: blackgrass, herbicidal effect grade [13] | K: Italian ryegrass, herbicidal effect grade [14] | M: velvetleaf, herbicidal effect grade [15] | N: redroot pigweed, herbicidal effect grade [16] | P: chickweed, herbicidal effect grade [17] | Q: false cleavers, herbicidal effect grade [18] | also measured |
| --- | --- | --- | --- | --- | --- | --- | --- | --- | --- | --- | --- | --- | --- | --- | --- | --- | --- | --- | --- |
| CCCC(=O)Oc1c(C)nn(C)c(=O)c1-c1c(-c2ccc(F)cc2)sc2cc(F)ccc12 [3-002] | 5 (Herbicidal rate of 90% or more (almost completely withered)) | 3 (Herbicidal rate of 40% or more and less than 70%) | 3 (Herbicidal rate of 40% or more and less than 70%) | 4 (Herbicidal rate of 70% or more and less than 90%) | 3 (Herbicidal rate of 40% or more and less than 70%) | 0 (Herbicidal rate of 5% or less (almost no effect)) | 4 (Herbicidal rate of 70% or more and less than 90%) | 4 (Herbicidal rate of 70% or more and less than 90%) | 3 (Herbicidal rate of 40% or more and less than 70%) | 1 (Herbicidal rate of 5% or more and less than 20%) | 5 (Herbicidal rate of 90% or more (almost completely withered)) | 4 (Herbicidal rate of 70% or more and less than 90%) | 4 (Herbicidal rate of 70% or more and less than 90%) | 4 (Herbicidal rate of 70% or more and less than 90%) | 5 (Herbicidal rate of 90% or more (almost completely withered)) | 5 (Herbicidal rate of 90% or more (almost completely withered)) | 5 (Herbicidal rate of 90% or more (almost completely withered)) | 5 (Herbicidal rate of 90% or more (almost completely withered)) | – |
| COc1ccccc1-c1sc2cc(F)ccc2c1-c1c(O)c(C)nn(C)c1=O [3-003] | 3 (Herbicidal rate of 40% or more and less than 70%) | 2 (Herbicidal rate of 20% or more and less than 40%) | 3 (Herbicidal rate of 40% or more and less than 70%) | 4 (Herbicidal rate of 70% or more and less than 90%) | 4 (Herbicidal rate of 70% or more and less than 90%) | 3 (Herbicidal rate of 40% or more and less than 70%) | 4 (Herbicidal rate of 70% or more and less than 90%) | 4 (Herbicidal rate of 70% or more and less than 90%) | 4 (Herbicidal rate of 70% or more and less than 90%) | 4 (Herbicidal rate of 70% or more and less than 90%) | 4 (Herbicidal rate of 70% or more and less than 90%) | 5 (Herbicidal rate of 90% or more (almost completely withered)) | 5 (Herbicidal rate of 90% or more (almost completely withered)) | 5 (Herbicidal rate of 90% or more (almost completely withered)) | 5 (Herbicidal rate of 90% or more (almost completely withered)) | 5 (Herbicidal rate of 90% or more (almost completely withered)) | 5 (Herbicidal rate of 90% or more (almost completely withered)) | 5 (Herbicidal rate of 90% or more (almost completely withered)) | – |
| CCOc1ccccc1-c1sc2cc(F)ccc2c1-c1c(O)c(C)nn(C)c1=O [3-006] | 5 (Herbicidal rate of 90% or more (almost completely withered)) | 3 (Herbicidal rate of 40% or more and less than 70%) | 4 (Herbicidal rate of 70% or more and less than 90%) | 5 (Herbicidal rate of 90% or more (almost completely withered)) | 4 (Herbicidal rate of 70% or more and less than 90%) | 5 (Herbicidal rate of 90% or more (almost completely withered)) | 2 (Herbicidal rate of 20% or more and less than 40%) | 5 (Herbicidal rate of 90% or more (almost completely withered)) | 5 (Herbicidal rate of 90% or more (almost completely withered)) | 5 (Herbicidal rate of 90% or more (almost completely withered)) | 5 (Herbicidal rate of 90% or more (almost completely withered)) | 5 (Herbicidal rate of 90% or more (almost completely withered)) | 5 (Herbicidal rate of 90% or more (almost completely withered)) | 5 (Herbicidal rate of 90% or more (almost completely withered)) | 5 (Herbicidal rate of 90% or more (almost completely withered)) | 5 (Herbicidal rate of 90% or more (almost completely withered)) | 5 (Herbicidal rate of 90% or more (almost completely withered)) | 5 (Herbicidal rate of 90% or more (almost completely withered)) | – |
| CCCC(=O)Oc1c(C)nn(C)c(=O)c1-c1c(-c2ccc(OC)cc2)sc2cc(F)ccc12 [3-008] | 5 (Herbicidal rate of 90% or more (almost completely withered)) | 0 (Herbicidal rate of 5% or less (almost no effect)) | 2 (Herbicidal rate of 20% or more and less than 40%) | 4 (Herbicidal rate of 70% or more and less than 90%) | 0 (Herbicidal rate of 5% or less (almost no effect)) | 0 (Herbicidal rate of 5% or less (almost no effect)) | 0 (Herbicidal rate of 5% or less (almost no effect)) | 5 (Herbicidal rate of 90% or more (almost completely withered)) | 5 (Herbicidal rate of 90% or more (almost completely withered)) | 2 (Herbicidal rate of 20% or more and less than 40%) | 5 (Herbicidal rate of 90% or more (almost completely withered)) | 4 (Herbicidal rate of 70% or more and less than 90%) | 1 (Herbicidal rate of 5% or more and less than 20%) | 3 (Herbicidal rate of 40% or more and less than 70%) | 5 (Herbicidal rate of 90% or more (almost completely withered)) | 5 (Herbicidal rate of 90% or more (almost completely withered)) | 5 (Herbicidal rate of 90% or more (almost completely withered)) | 4 (Herbicidal rate of 70% or more and less than 90%) | – |
| Cc1nn(C)c(=O)c(-c2c(-c3ccc4c(c3)OCCO4)oc3ccccc23)c1O [8-002] | 4 (Herbicidal rate of 70% or more and less than 90%) | 3 (Herbicidal rate of 40% or more and less than 70%) | 4 (Herbicidal rate of 70% or more and less than 90%) | 5 (Herbicidal rate of 90% or more (almost completely withered)) | – | – | – | – | – | – | – | – | – | – | – | – | – | – | I: wild oat, herbicidal effect grade [5]: 0 (Herbicidal rate of 5% or less (almost no effect)); J: blackgrass, herbicidal effect grade [6]: 0 (Herbicidal rate of 5% or less (almost no effect)); K: Italian ryegrass, herbicidal effect grade [7]: 0 (Herbicidal rate of 5% or less (almost no effect)); O: lambsquarters, herbicidal effect grade [8]: 0 (Herbicidal rate of 5% or less (almost no effect)); P: chickweed, herbicidal effect grade [9]: 5 (Herbicidal rate of 90% or more (almost completely withered)); Q: false cleavers, herbicidal effect grade [10]: 0 (Herbicidal rate of 5% or less (almost no effect)); R: persian speedwell, herbicidal effect grade [11]: 5 (Herbicidal rate of 90% or more (almost completely withered)); herbicidal effect on southern crabgrass (F) [12]: 1 (Herbicidal rate of 5% or more and less than 20%); herbicidal effect on blackgrass (J) [13]: 0 (Herbicidal rate of 5% or less (almost no effect)); herbicidal effect on Italian ryegrass (K) [14]: 4 (Herbicidal rate of 70% or more and less than 90%); herbicidal effect on velvetleaf (M) [15]: 5 (Herbicidal rate of 90% or more (almost completely withered)); herbicidal effect on false cleavers (Q) [18]: 0 (Herbicidal rate of 5% or less (almost no effect)) |
